Patent publication US20180006232A1, “HETEROCYCLIC COMPOUND, LIGHT-EMITTING ELEMENT, LIGHT-EMITTING DEVICE, ELECTRONIC APPLIANCE, AND LIGHTING DEVICE” (Semiconductor Energy Laboratory Co., Ltd., priority 2014, published 2018)
Where two headings read alike, the source gives them in different places.

Assay: Examination of solubility in organic solvents
Format: physicochemical
Settings: for solubility: organic solvent or mixture, thermodynamic from solid
Excerpt: The heterocyclic compound which is one embodiment of the present invention and used in this example was 2mFBPDBq (sample 1). Note that 2mFBPDBq was synthesized by the synthesis method described in Example 1. In addition, the compound used for comparison was 2mDBTBPDBq-II (comparison sample 2). The purity of each compound was 99.9%. The structural formulae of the compounds are shown below.
The solvents used in this example were the four kinds of solvents: toluene, chloroform, ethyl acetate, and acetone.
A method of examining the solubility of the compound of each sample is described. First, 10 mg of the compound was put into a small bottle and to this was added 1 mL of a solvent. Then, whether the compound was dissolved at room temperature or not was checked. When the compound was not dissolved at room temperature, ultrasonic wave irradiation and then heating using a dryer were performed, so that whether the compound was dissolved was checked.
When the compound was not dissolved after heating, the volume of the solvent was increased to 10 mL, so that whether the compound was dissolved at room temperature was checked. When the compound was not dissolved at room temperature, ultrasonic wave irradiation and then heating using a dryer were performed, so that whether the compound was dissolved was checked.

Row | Compound | solubility | Solubility in Acetone (acetone, 10 mg compound in 1 mL, then 10 mL, room temperature, then ultrasonic wave irradiation and heating) | Solubility in Chloroform (chloroform, 10 mg compound in 1 mL, then 10 mL, room temperature, then ultrasonic wave irradiation and heating) | Solubility in Ethyl acetate (ethyl acetate, 10 mg compound in 1 mL, then 10 mL, room temperature, then ultrasonic wave irradiation and heating) | solubility (toluene, 10 mg compound in 1 mL, then 10 mL, room temperature, then ultrasonic wave irradiation and heating, read-out: Solubility in Toluene) | Solubility compared with comparison compound 2mDBTBPDBq-II (organic solvents (toluene, chloroform, ethyl acetate, acetone), summary in words)
1 | c1cc(-c2cccc(-c3cccc4c3sc3ccccc34)c2)cc(-c2cnc3c4ccccc4c4ccccc4c3n2)c1 [2mDBTBPDBq-II, 2-[3′-(dibenzothiophen-4-yl)biphenyl-3-yl]dibenzo[f,h]quinoxaline, reference compound] | < 1000 µg/mL |  |  |  |  | 
2 | CC1(C)c2ccccc2-c2ccc(-c3cccc(-c4cccc(-c5cnc6c7ccccc7c7ccccc7c6n5)c4)c3)cc21 [2mFBPDBq, 2-{3-[3-(9,9-dimethylfluoren-2-yl)phenyl]phenyl}dibenzo[f,h]quinoxaline] |  | □ (dissolved at 10 mg/10 mL when heated) | ◯ (dissolved at 10 mg/mL when heated) | □ (dissolved at 10 mg/10 mL when heated) | > 10000 µg/mL | higher solubility
